This note sets out measurements from PubChem BioAssay (NCI).

“And” between values parts separate entries of the source, which are not always exact repeats. Identical values can stand only once.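 Compound exposure: 48 hours, 5 concentrations, 96-well plates. Here, GI50 denotes the concentration required for 50% inhibition of growth. The concentration for full growth arrest is given as TGI.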 Bounds are passed on as bounds.

Among the test systems are CCRF-CEM leukemia; HOP-62 NSCLC; KM12 colon; NCI-H226 lung; NCI-H23 lung; NCI-H460 lung; OVCAR-8 ovarian; RXF 393 renal; SK-OV-3 ovarian; SR leukemia.
Assay in all cases: DTP human tumour cell line panel, 48 h

Turning to `COc1ccc(Nc2nc3cc(C(F)(F)F)ccc3nc2-c2ccccc2)cc1OC`, the TGI is over 100 µM in the assay on CCRF-CEM leukemia; 39.3 µM in the assay on HOP-62 NSCLC; over 100 µM in the assay on KM12 colon; 69.7 µM in the assay with NCI-H226 lung; over 100 µM with NCI-H23 lung; over 100 µM in the assay on NCI-H460 lung. Also, the concentration for total growth inhibition (TGI) in the assay with OVCAR-8 ovarian is over 100 µM; in the assay with RXF 393 renal it was 35.9 µM; in the assay on SK-OV-3 ovarian it was 66.5 µM; in the assay with SR leukemia, over 100 µM.
As for `CCc1ccccc1NC(=O)C(C#N)C1=C(Cl)C(=O)c2ccccc2C1=O` (stereo unspecified), the TGI was over 100 µM in the assay on CCRF-CEM leukemia; 43.4 µM with HOP-62 NSCLC; 28.4 µM in the assay on KM12 colon; 30.4 µM in the assay with NCI-H226 lung; 29.5 µM in the assay on NCI-H23 lung; 40.6 µM in the assay on NCI-H460 lung. Moreover, the total growth inhibition concentration (TGI) in the assay with OVCAR-8 ovarian is 37 µM; in the assay on RXF 393 renal, 43.1 µM; in the assay on SK-OV-3 ovarian it was over 100 µM; in the assay on SR leukemia, over 100 µM.
Consider `O=C(O)CCCCn1ccc(=O)[nH]c1=O`, for which the total growth inhibition concentration (TGI) in the assay on CCRF-CEM leukemia, in the assay on HOP-62 NSCLC, in the assay with KM12 colon, with NCI-H226 lung, in the assay on NCI-H23 lung and in the assay on NCI-H460 lung was over 100 µM in each case. Besides, the total growth inhibition concentration (TGI) with OVCAR-8 ovarian, with RXF 393 renal, in the assay with SK-OV-3 ovarian and with SR leukemia was over 100 µM each time.
On to `CCn1c(-c2nonc2N)nc2c(C#CC(C)(C)O)ncc(OC3CCNCC3)c21`, for which the GI50 in the assay on CCRF-CEM leukemia is 5.18 µM; in the assay with HOP-62 NSCLC, over 16.4 µM; in the assay with KM12 colon, 4.52 µM; with NCI-H226 lung, 23.3 µM; in the assay with NCI-H23 lung it was over 23.7 µM; in the assay on NCI-H460 lung, 6.86 µM. Also, the GI50 in the assay on OVCAR-8 ovarian is 12.9 µM; in the assay on RXF 393 renal, 2.84 µM; in the assay on SK-OV-3 ovarian, 3.86 µM; with SR leukemia it was 9.64 µM. Moreover, the TGI in the assay with CCRF-CEM leukemia, in the assay on HOP-62 NSCLC, in the assay on KM12 colon, with NCI-H226 lung, in the assay on NCI-H23 lung and in the assay with NCI-H460 lung was over 25 µM throughout. Moreover, the total growth inhibition concentration (TGI) in the assay with OVCAR-8 ovarian is over 25 µM; in the assay on RXF 393 renal, 13.3 µM; with SK-OV-3 ovarian, over 25 µM; with SR leukemia, over 21.3 µM.
As to `Cc1ccc(-c2nc3nc(-c4ccc(F)cc4)nc(N4CCNCC4)c3o2)cc1`, the GI50 was 1.91 µM in the assay with CCRF-CEM leukemia; 16.4 µM in the assay on HOP-62 NSCLC; 1.88 µM in the assay on KM12 colon; 10.6 µM in the assay on NCI-H226 lung; 12 µM in the assay with NCI-H23 lung; 1.94 µM in the assay on NCI-H460 lung. The GI50 in the assay on OVCAR-8 ovarian is 2.35 µM; in the assay with RXF 393 renal, 10.7 µM; in the assay on SK-OV-3 ovarian, 18.7 µM; with SR leukemia it was 0.323 µM. For the same compound, the concentration for total growth inhibition (TGI) in the assay on CCRF-CEM leukemia came to 4.74 µM; with HOP-62 NSCLC, 37.9 µM; in the assay on KM12 colon it was 3.61 µM; with NCI-H226 lung, 26.7 µM; in the assay with NCI-H23 lung, 27.6 µM; in the assay on NCI-H460 lung, 3.77 µM. Moreover, the TGI with OVCAR-8 ovarian came out at 5.82 µM; in the assay with RXF 393 renal it was 23.2 µM; in the assay on SK-OV-3 ovarian it was 34.4 µM; with SR leukemia it was 1.13 µM.
Regarding `N#CC1C[C@@H]2CC3(CCC2CN1C(=O)c1ccccc1)OCCO3` (stereo partly specified), the TGI with CCRF-CEM leukemia, in the assay with HOP-62 NSCLC, in the assay with KM12 colon, in the assay on NCI-H226 lung, in the assay on NCI-H23 lung and with NCI-H460 lung was over 100 µM in each case. Also, the total growth inhibition concentration (TGI) with OVCAR-8 ovarian, in the assay on RXF 393 renal, in the assay with SK-OV-3 ovarian and in the assay with SR leukemia was over 100 µM in each case. Also, the GI50 in the assay on NCI-H226 lung is over 100 µM.
As to `Cc1ccccc1C1=C(c2cn(C)c3ccccc23)C(=O)NC1=O`, the GI50 is 9.75 µM in the assay on CCRF-CEM leukemia; over 24.1 µM in the assay with HOP-62 NSCLC; 10.8 µM in the assay with KM12 colon; 11.6 µM in the assay with NCI-H226 lung; over 25 µM in the assay on NCI-H23 lung; 14.3 µM in the assay with NCI-H460 lung. Moreover, the GI50 in the assay with OVCAR-8 ovarian was over 22.5 µM; with RXF 393 renal, 7.02 µM; in the assay with SK-OV-3 ovarian, over 25 µM; in the assay with SR leukemia, 7.78 µM. In addition, the concentration for total growth inhibition (TGI) in the assay on CCRF-CEM leukemia, in the assay on HOP-62 NSCLC, in the assay with KM12 colon, in the assay on NCI-H226 lung, with NCI-H23 lung and in the assay with NCI-H460 lung was over 25 µM in each case. The TGI in the assay with OVCAR-8 ovarian, in the assay with RXF 393 renal, in the assay on SK-OV-3 ovarian and with SR leukemia was over 25 µM throughout.
`ClCCCSSCCCCl`: the TGI in the assay with CCRF-CEM leukemia is over 43.9 µM; in the assay with HOP-62 NSCLC it was over 100 µM; in the assay with KM12 colon it was over 95.1 µM; with NCI-H226 lung, over 100 µM; with NCI-H23 lung, over 100 µM; in the assay with NCI-H460 lung, over 100 µM. The TGI was over 75.8 µM in the assay on OVCAR-8 ovarian, over 100 µM in the assay with RXF 393 renal, over 100 µM with SK-OV-3 ovarian and over 25.8 µM in the assay with SR leukemia.
With `CC(=O)OCC12CN(C#N)C3C4COC(CC41)C1(C(=O)N(C)c4ccccc41)C32` (stereo unspecified), the TGI is 53 µM in the assay with CCRF-CEM leukemia; 58.6 µM with HOP-62 NSCLC; over 100 µM in the assay on KM12 colon; 49.5 µM in the assay with NCI-H226 lung; 44.6 µM in the assay with NCI-H23 lung; 94.5 µM in the assay with NCI-H460 lung. Besides, the TGI in the assay on OVCAR-8 ovarian is 55 µM; in the assay with RXF 393 renal, 38.3 µM; in the assay on SK-OV-3 ovarian, over 100 µM; with SR leukemia, 68.3 µM.
For `COC(=O)C12CCC(C)(C)CC1C1=CCC3C4(C)CC(O)C(O)C(C)(C(=O)OC)C4CCC3(C)C1(CO)CC2` (stereo unspecified), the TGI with CCRF-CEM leukemia worked out at 80.2 µM; with HOP-62 NSCLC it was 32.2 µM; in the assay with KM12 colon, 22.3 µM; with NCI-H226 lung, 38.5 µM; with NCI-H23 lung it was 32.2 µM; in the assay with NCI-H460 lung, 31.5 µM. Moreover, the TGI in the assay on OVCAR-8 ovarian came out at 31.5 µM; with RXF 393 renal it was 19.5 µM; in the assay with SK-OV-3 ovarian it was 31.3 µM; in the assay on SR leukemia it was 31.4 µM.
As for `O=C(/C=C/C12c3ccccc3C(c3ccccc31)C1C(=O)N(c3ccc(Cl)cc3)C(=O)C12)c1ccccn1` (stereo unspecified), the GI50 in the assay on CCRF-CEM leukemia was 0.29 µM; in the assay on HOP-62 NSCLC it was 0.405 µM; with KM12 colon, 0.345 µM; in the assay with NCI-H226 lung it was 0.258 µM; in the assay with NCI-H23 lung, 0.342 µM; in the assay on NCI-H460 lung, 0.232 µM. For the same compound, the GI50 in the assay with OVCAR-8 ovarian is 0.328 µM; in the assay on RXF 393 renal, 0.187 µM; with SK-OV-3 ovarian, 1.98 µM; in the assay on SR leukemia, 0.241 µM. Besides, the total growth inhibition concentration (TGI) in the assay with CCRF-CEM leukemia was over 100 µM; in the assay on HOP-62 NSCLC it was 2.22 µM; in the assay with NCI-H226 lung it was 0.878 µM; in the assay with NCI-H23 lung, 1.36 µM; with NCI-H460 lung it was 0.568 µM; in the assay with OVCAR-8 ovarian it was over 100 µM. Also, the TGI with RXF 393 renal is 0.448 µM; in the assay on SK-OV-3 ovarian, over 100 µM; in the assay with SR leukemia, over 100 µM.
Turning to `CNC(=O)c1nn(C)c2c1C(C)(C)Cc1cnc(Nc3cccc(N4CCN(C)CC4)c3)nc1-2`, the GI50 is 0.382 µM in the assay with CCRF-CEM leukemia; 0.44 µM in the assay on HOP-62 NSCLC; 0.0514 µM in the assay on KM12 colon; 0.237 µM with NCI-H226 lung; 0.372 µM in the assay on NCI-H23 lung; 0.303 µM in the assay on NCI-H460 lung. The GI50 in the assay with OVCAR-8 ovarian is 1.25 µM; with RXF 393 renal it was 0.147 µM; with SK-OV-3 ovarian, 0.21 µM; in the assay on SR leukemia, 0.286 µM. For the same compound, the concentration for total growth inhibition (TGI) was over 26.8 µM in the assay on CCRF-CEM leukemia; 17.9 µM with HOP-62 NSCLC; 3.43 µM with KM12 colon; 9.96 µM in the assay with NCI-H226 lung; 9.81 µM with NCI-H23 lung; 11.8 µM in the assay with NCI-H460 lung. The TGI in the assay on OVCAR-8 ovarian was found to be 22.3 µM; with RXF 393 renal it was 1.38 µM; with SK-OV-3 ovarian it was 7.44 µM; in the assay on SR leukemia it was 7.88 µM.
Turning to `COc1ccc(-c2cc(/C=C3\C(=O)Nc4cc(Cl)ccc43)[nH]n2)cc1`, the GI50 is 2.24 µM with CCRF-CEM leukemia; 2.75 µM in the assay on HOP-62 NSCLC; 3.46 µM in the assay on KM12 colon; 13.1 µM with NCI-H226 lung; 4.27 µM in the assay on NCI-H23 lung; 3.43 µM in the assay on NCI-H460 lung. In addition, the GI50 in the assay with OVCAR-8 ovarian was 4.55 µM; in the assay with RXF 393 renal, 2.03 µM; with SK-OV-3 ovarian, 4.23 µM; in the assay with SR leukemia, 2.44 µM. In addition, the TGI in the assay on CCRF-CEM leukemia was 28.9 µM; with HOP-62 NSCLC, 85.9 µM; with KM12 colon, 56.1 µM; with NCI-H226 lung, 98.6 µM; in the assay on NCI-H23 lung it was over 100 µM; in the assay with NCI-H460 lung, 23.1 µM. Further, the TGI is 98.6 µM with OVCAR-8 ovarian, 7.36 µM in the assay on RXF 393 renal, over 100 µM in the assay on SK-OV-3 ovarian and 14.1 µM in the assay with SR leukemia.
In the case of `COc1cccc(C=O)c1C(=O)c1cc(O)ccc1O`, the concentration for total growth inhibition (TGI) in the assay with CCRF-CEM leukemia is 80.2 µM; in the assay with HOP-62 NSCLC it was over 100 µM; in the assay on KM12 colon, over 100 µM; with NCI-H226 lung it was over 100 µM; with NCI-H23 lung, over 100 µM; with NCI-H460 lung, over 100 µM. The concentration for total growth inhibition (TGI) is 46.5 µM in the assay on OVCAR-8 ovarian, 32.2 µM with RXF 393 renal, over 100 µM in the assay with SK-OV-3 ovarian and 24.1 µM with SR leukemia.
Regarding `C/C(=N\NC(=S)N1CCN(c2ccccn2)CC1)c1ccccn1`, the concentration for total growth inhibition (TGI) with CCRF-CEM leukemia was 0.878 µM and 0.317 µM; in the assay on HOP-62 NSCLC, 12.7 µM; with KM12 colon it was 14.1 µM; in the assay on NCI-H226 lung it was 7.33 µM; in the assay on NCI-H23 lung, 11.5 µM; in the assay on NCI-H460 lung it was 12.9 µM. Moreover, the total growth inhibition concentration (TGI) turned out to be 20.4 µM with OVCAR-8 ovarian, 13.4 µM in the assay with RXF 393 renal, 16.2 µM in the assay with SK-OV-3 ovarian and 2.06 µM in the assay with SR leukemia. In addition, the GI50 is 0.0475 µM in the assay with HOP-62 NSCLC; 0.0219 µM with KM12 colon; 0.236 µM with NCI-H226 lung; 0.0102 µM in the assay on NCI-H460 lung; 0.198 µM in the assay on SK-OV-3 ovarian; 0.0167 µM in the assay on SR leukemia.

For orientation: TGI means the concentration at which net growth stops. For orientation: GI50 means the concentration at which growth is held to half of that of the control.
